Experiments:
Assay in all cases: MIC, broth microdilution (CLSI), substance alone or ATB combined with compound at 4 or 8 μg/mL
ECO 190317 = type: cell-based, E. coli; settings: ECO 190317
Procedure: (§1) Compounds of the present invention were assessed against genotyped bacterial strains alone or in combination with an antibacterial. In the assays, MICs of said compounds or combination of antibiotics with fixed concentrations of said compounds (4 or 8 μg/mL) were determined by the broth microdilution method according to the Clinical Laboratory Standards Institute (CLSI-M7-A7). Briefly, compounds alone according to the invention were prepared in DMSO and spotted (2 μL each) on sterile polystyrene plates (Corning, 3788). Combinations of compounds and antibiotics dilutions were prepared in DMSO and spotted (1 μL each) on sterile polystyrene plates (Corning, 3788). Log phase bacterial suspensions were adjusted to a final density of 5·10^5 CFU/mL in cation-adjusted Mueller-Hinton broth (ca-MHB; Becton-Dickinson and Company) and added to each well (98 μL). Assays including Fosfomycin were supplemented with 25 μg/ml of Glucose-6-phosphate. Microplates were incubated for 16-20 h at 35° C. in ambient air. The MIC of the compounds was defined as the lowest concentration of said compounds that prevented bacterial growth as read by visual inspection. The MIC of ATB at each compound concentration was defined as the lowest concentration of ATB that prevented bacterial growth as read by visual inspection.

ECO UFR39 = type: cell-based, E. coli; settings: ECO UFR39
Procedure: as §1

ECL P99 = type: cell-based, E. cloacae; settings: ECL P99
Procedure: as §1

PAE 105250 = type: cell-based, P. aeruginosa; settings: PAE 105250
Procedure: as §1

PAE UFR48 = type: cell-based, P. aeruginosa; settings: PAE UFR48
Procedure: as §1

PAE UFR90 = type: cell-based, P. aeruginosa; settings: PAE UFR90
Procedure: as §1

SAU 29213 = type: cell-based, S. aureus; settings: SAU 29213
Procedure: as §1

SPN 49619 = type: cell-based, S. pneumoniae; settings: SPN 49619
Procedure: as §1

SMILES: O=C(N[C@H](CO)[C@H](O)c1ccc([N+](=O)[O-])cc1)C(Cl)Cl [CM]
- MIC ATB alone (ECO 190317; antibiotic alone): 8 µg/mL
- MIC ATB combined with Example 1 @8 μg/ml (ECO 190317; with Example 1 @8 μg/ml): <0.031 µg/mL
- MIC ATB combined with Example 1 @8 μg/ml (ECO 190317; with Example 1 at 8 μg/ml): <0.031 µg/mL
- MIC ATB combined with Example 7 @8 μgml (ECO 190317; with Example 7 at 8 μg/ml): <0.031 µg/mL
- MIC ATB combined with Example 13 @8 μg/ml (ECO 190317; with Example 13 at 8 μg/ml): <0.031 µg/mL
- MIC ATB alone (ECO UFR39; antibiotic alone): 64 µg/mL
- MIC ATB combined with Example 1 @8 μg/ml (ECO UFR39; with Example 1 @8 μg/ml): <0.031 µg/mL
- MIC ATB combined with Example 1 @8 μg/ml (ECO UFR39; with Example 1 at 8 μg/ml): <0.031 µg/mL
- MIC ATB combined with Example 7 @8 μgml (ECO UFR39; with Example 7 at 8 μg/ml): <0.031 µg/mL
- MIC ATB combined with Example 13 @8 μg/ml (ECO UFR39; with Example 13 at 8 μg/ml): <=0.031 μg/mL
- MIC ATB alone (ECL P99; antibiotic alone): 512 µg/mL
- MIC ATB combined with Example 1 @8 μg/ml (ECL P99; with Example 1 @8 μg/ml): <0.031 µg/mL
- MIC ATB combined with Example 1 @8 μg/ml (ECL P99; with Example 1 at 8 μg/ml): <0.031 µg/mL
- MIC ATB combined with Example 12 @8 μg/ml (PAE 105250; with Example 12 at 8 μg/ml): >32 µg/mL
- MIC ATB combined with Example 14 @8 μg/ml (PAE 105250; with Example 14 at 8 μg/ml): >32 µg/mL
- MIC ATB combined with Example 16 @4 μg/ml (PAE 105250; with Example 16 at 4 μg/ml): >32 µg/mL
- MIC ATB alone (PAE UFR48; antibiotic alone): 512 µg/mL
- MIC ATB combined with Example 1 @8 μg/ml (PAE UFR48; with Example 1 @8 μg/ml): <0.031 µg/mL
- MIC ATB combined with Example 1 @8 μg/ml (PAE UFR48; with Example 1 at 8 μg/ml): <0.031 µg/mL
- MIC ATB combined with Example 12 @8 μg/ml (PAE UFR48; with Example 12 at 8 μg/ml): >32 µg/mL
- MIC ATB combined with Example 14 @8 μg/ml (PAE UFR48; with Example 14 at 8 μg/ml): >32 µg/mL
- MIC ATB combined with Example 16 @4 μg/ml (PAE UFR48; with Example 16 at 4 μg/ml): >32 µg/mL
- MIC ATB alone (PAE UFR90; antibiotic alone): >1024 µg/mL
- MIC ATB combined with Example 1 @8 μg/ml (PAE UFR90; with Example 1 @8 μg/ml): <0.031 µg/mL
- MIC ATB combined with Example 1 @8 μg/ml (PAE UFR90; with Example 1 at 8 μg/ml): <0.031 µg/mL
- MIC ATB combined with Example 12 @8 μg/ml (PAE UFR90; with Example 12 at 8 μg/ml): >32 µg/mL
- MIC ATB combined with Example 14 @8 μg/ml (PAE UFR90; with Example 14 at 8 μg/ml): >32 µg/mL
- MIC ATB combined with Example 16 @4 μg/ml (PAE UFR90; with Example 16 at 4 μg/ml): >32 µg/mL
- MIC ATB alone (SAU 29213; antibiotic alone): 16 µg/mL
- MIC ATB combined with Example 1 @8 μg/ml (SAU 29213; with Example 1 @8 μg/ml): 16 µg/mL
- MIC ATB combined with Example 1 @8 μg/ml (SAU 29213; with Example 1 at 8 μg/ml): 16 µg/mL
- MIC ATB combined with Example 7 @8 μgml (SAU 29213; with Example 7 at 8 μg/ml): 4 µg/mL
- MIC ATB combined with Example 11 @8 μg/ml (SAU 29213; with Example 11 at 8 μg/ml): <=0.031 μg/mL
- MIC ATB combined with Example 13 @8 μg/ml (SAU 29213; with Example 13 at 8 μg/ml): 4 µg/mL
- MIC ATB combined with Example 15 @4 μgml (SAU 29213; with Example 15 at 4 μg/ml): 0.063 µg/mL
- MIC ATB alone (SPN 49619; antibiotic alone): 4 µg/mL
- MIC ATB combined with Example 1 @8 μg/ml (SPN 49619; with Example 1 @8 μg/ml): 4 µg/mL
- MIC ATB combined with Example 1 @8 μg/ml (SPN 49619; with Example 1 at 8 μg/ml): 4 µg/mL
- MIC ATB combined with Example 7 @8 μgml (SPN 49619; with Example 7 at 8 μg/ml): 2 µg/mL
- MIC ATB combined with Example 11 @8 μg/ml (SPN 49619; with Example 11 at 8 μg/ml): 2 µg/mL
- MIC ATB combined with Example 13 @8 μg/ml (SPN 49619; with Example 13 at 8 μg/ml): 2 µg/mL
- MIC ATB combined with Example 15 @4 μgml (SPN 49619; with Example 15 at 4 μg/ml): 2 µg/mL
- MIC ATB combined with Example 16 @4 μg/ml (SPN 49619; with Example 16 at 4 μg/ml): <=0.031 μg/mL
